Experimental findings from patent publication US20130295672A1, “STEM CELL CULTURE MEDIA AND METHODS” (CONSEJO SUPERIOR DE INVESTIGACIONES CIENTÍFICAS, priority 2010, published 2013) are described below.

Format in all cases: cell-based, human
The nature of data set [1]: MTS assay (CellTiter AQueous One Solution Cell Proliferation Assay), hASC viability/growth. The note with it: human, hASC cells; no APRIL/BAFF; control 100%; read-out: basal hASC growth in MTS assay with inhibitor added to medium. On the procedure:
(§1) FIG. 2. APRIL and BAFF enhance hASC viability and proliferation. (A): Cell viability was assessed by the CellTiter AQueous One Solution Cell Proliferation Assay (Promega, Madison, Wis.) according to manufacturer's protocols. hASC (3.5×10^3 cells/well) were cultured for 6 days in 96-well plates with 100 ng/ml APRIL or BAFF. Absorbance (OD 490 nm) was measured in an ELISA plate reader (n=at least three experiments). Values were normalized to the absorbance of cells cultured without stimuli (100%). (B): Histograms show cell proliferation measured by a […] BrdU incorporation assay. hASC were cultured in p60 plates with 100 ng/ml APRIL or BAFF; BrdU (20 μM) was added for the last three days. At day 6, BrdU incorporation was detected by flow cytometry using an anti-BrdU antibody. Numerals indicate percentage of cells positive for BrdU and, therefore, actively proliferating. Cell viability was assessed by the CellTiter AQueous One Solution Cell Proliferation Assay (Promega, Madison, Wis.) according to manufacturer's protocols. hASC (3.5×10^3 cells/well) were cultured for 6 days in 96-well plates with 100 ng/ml APRIL or BAFF. Absorbance (OD 490 nm) was measured in an ELISA plate reader (n=at least three experiments). Values were normalized to the absorbance of cells cultured without stimuli (100%). Additionally, cell proliferation was measured by a colorimetric BrdU incorporation assay. hASC were cultured in p60 plates with 100 ng/ml APRIL or BAFF; BrdU (20 μM) was added for the last three days. At day 6, BrdU incorporation was detected by flow cytometry using an anti-BrdU antibody. Three independent MTS and BrdU assays were performed and triplicates included for each condition.
For orientation: Tetrazolium dyes change colour on reduction, which living cells bring about.

Data set [2] relates to hASC. The description is as above. Particulars: for hASC growth in MTS assay, considering basal growth 100%: 100 ng/ml, 6 days in culture, normalized to cells without stimuli (100%); for promotion of cell growth when ERK was inhibited: with ERK inhibitor U0126, effect kept when PI3K was inhibited. How it is done: as §1
For data set [3], the system named is hASC. The data set can be described thus: BrdU incorporation assay by flow cytometry, hASC proliferation. The note with it: 100 ng/ml, day 6, BrdU for the last three days; control 13%. On the procedure:
as §1, with “Additionally, cell proliferation was measured by a colorimetric BrdU incorporation assay. hASC were cultured in p60 plates with 100 ng/ml APRIL or BAFF; BrdU (20 μM) was added for the last three days.” left out, “Three independent MTS and BrdU assays were performed and triplicates included for each condition.” left out
(Dividing cells build labelled thymidine or BrdU into new DNA.)

A further data set has as its system Akt. The data set can be described thus: Western blot phosphorylation kinetics in stimulated hASC: Akt. Particulars: 100 ng/ml, 10-120 min. How it is done:
(§2) FIG. 3. APRIL and BAFF-mediated signaling in hASC. hASC were stimulated with 100 ng/ml APRIL or BAFF (10, 30, 60, 120 min, 37° C.), placed on ice, washed with ice-cold PBS, and lysed with cell lysis buffer (Roche, Indianapolis, Ind.). Extracts were quantified by absorbance, resolved in SDS-PAGE and analyzed by immunoblot. Antibodies used were anti-phospho-Akt (Ser473), -Akt, -phospho-ERK1/2 (Thr202/Tyr204), and -ERK1/2) (BD Bioscience); secondary antibodies were horseradish peroxidase-conjugated bovine anti-rabbit and goat anti-mouse IgG. (B): Histograms show cell proliferation measured by BrdU incorporation as in (FIG. 2B), with addition of the ERK inhibitor U0126 (2.5 μM; Sigma) or the PI3K inhibitor LY294002 (10 μM; Calbiochem) to the culture on days 0 and 3. […]
(§3) hASC were stimulated with 100 ng/ml APRIL or BAFF (10, 30, 60, 120 min, 37° C.), placed on ice, washed with ice-cold PBS, and lysed with cell lysis buffer (Roche, Indianapolis, Ind.). Extracts were quantified by absorbance, resolved in SDS-PAGE and analyzed by immunoblot. […]
(§4) Plated hASC (1.5×10^4 cells/cm2) were stimulated with APRIL or BAFF (100 ng/ml) and lysed with lysis buffer (Roche) with protease and phosphatase inhibitors. Proteins in extracts were quantified by absorbance with the BCA protein assay kit (Pierce), and equal amounts of protein homogenate resolved in SDS-PAGE, and transferred to PVDF membranes (Millipore). […]
A general note: Immunoblotting shows a protein as a band on a membrane.

In another data set the test system is ERK1/2. In words: Western blot phosphorylation kinetics in stimulated hASC: ERK1/2. Particulars: 100 ng/ml, 10-120 min. How it is done:
as §2, §3, §4

The subject of a further data set is JNK, IκBα or p38. In words: Western blot phosphorylation kinetics in stimulated hASC: JNK, IκBα, p38.
For the next data set, the system named is PBMC proliferation. In words: Immunosuppression assay: proliferation of activated CFSE-labeled PBMC with allogeneic hASC. The note with it: 100 ng/ml, day 5. On the procedure: FIG. 4. Modulation of APRIL and BAFF in hASC. Immunosuppressive effect (A): hASC cells were cultured with 100 ng/ml APRIL (light grey bar), BAFF (dark grey bar) or no stimulus (white bar) and then stimulated with 1 μg/ml LPS or poly I:C. […] Data were acquired using a FACScalibur cytometer and analyzed using FCAP array software (BD Bioscience). (B): Immunosupression assay: Allogeneic hASCs were cultured with activated CFSE labelled PBLs at a ratio of 1:25 (hASC: PBLs) in the presence or absence of BAFF or APRIL (100 ng/ml). After 5 days cells were harvested, analyzed by flow cytometry in a FACScalibur cytometer (BD Bioscience) and acquired for CFSE. […]
For CFSE labeling, freshly purified PBMC (10-20×106) were washed extensively to remove FBS, resuspended in 200 μl of a 10 μM CFSE solution (Sigma), and incubated with constant shaking (37° C., 10 min) Cells were washed and cultured overnight, and one aliquot was used to set up and control FL-1 voltage for CFSE in the cytometer. […] At day 5, PBMC were harvested and cell proliferation was determined according to loss of CFSE in the FL-1 channel. Data were analyzed using Cellquest-Pro software on gated lymphocytes (based on forward scatter/side scatter properties). The percentage of proliferating lymphocytes was calculated by gating in the region (M1) of the FL-1 channel corresponding to the last 48 h of culture ([…]). […]

The subject of data set [4] is indoleamine 2,3-dioxygenase (IDO). In words: IDO induction in hASC. The note with it: BAFF/APRIL activation of hASC.
Data set [5] has as its system HLA-I, HLA-II, CD80 and CD86 expression. In words: Flow cytometry of hASC activation molecules. The note with it: APRIL or BAFF activation. How it is done: hASCs were harvested, stained with appropriate fluorochrome-coupled antibodies and measured by flow cytometry (BD FACS Calibur). Data were analyzed using the FlowJo program (TreeStar, Ashland, Oreg.).
Data set [6] deals with APRIL and BAFF secretion in hASC. The data set can be described thus: ELISA of APRIL and BAFF concentrations in hASC medium. How it is done: FIG. 4. Modulation of APRIL and BAFF in hASC. Immunosuppressive effect (A): hASC cells were cultured with 100 ng/ml APRIL (light grey bar), BAFF (dark grey bar) or no stimulus (white bar) and then stimulated with 1 μg/ml LPS or poly I:C. […] Data were acquired using a FACScalibur cytometer and analyzed using FCAP array software (BD Bioscience). (B): Immunosupression assay: Allogeneic hASCs were cultured with activated CFSE labelled PBLs at a ratio of 1:25 (hASC: PBLs) in the presence or absence of BAFF or APRIL (100 ng/ml). After 5 days cells were harvested, analyzed by flow cytometry in a FACScalibur cytometer (BD Bioscience) and acquired for CFSE. Percentage of proliferating cells (relative to PBLs alone) in the last two generations is shown. Mean and standard deviation of experiments with 6 different buffy coats are represented. Buffy coats were provided by the National Transfusion Centre of the Comunidad Autónoma of Madrid. PBLs were isolated by density centrifugation gradient using Ficollplaque Plus (GE Healthcare Biosciences AB, Uppsala) (C): hASC cells were cultured with IFNγ. Supernatants were collected five days later. […] IL-6 and IL-8 concentration in the medium after 48 h, was measured by the Cytometric Bead Array (CBA) immunoassay (BD Bioscience) following manufacturer instructions. Data were acquired using a FACScalibur cytometer and analyzed using FCAP array software (BD Bioscience). […] Supernatants were collected five days later. APRIL and BAFF concentrations in the medium were determined by ELISA (R&D Systems for BAFF, Bender MedSystem for APRIL).

Where [7] appears, read: 10, 30, 100 ng/ml, supernatants after five days.

Regarding `O=c1cc(N2CCOCC2)oc2c(-c3ccccc3)cccc12` [LY294002, reference compound], the viability at 6 days in data set [1] was 60.3%.

As to `N#CC(=C(/N)Sc1ccccc1N)/C(C#N)=C(\N)Sc1ccccc1N` [U0126, reference compound], in the data set on hASC [2] (inhibitor added to medium, no APRIL/BAFF), the “decrease in basal hASC growth (MTS assay), result in words” value was “but not ERK inhibitor”.

On to “APRIL: recombinant protein from R&D Systems; TNF ligand binding BCMA and TACI”, for which, in the data set with hASC [2], the “hASC growth in MTS assay, considering basal growth 100%” value was found to be 114% and the “promotion of cell growth when ERK was inhibited” value is “did not promote cell growth”. Further, the “percentage of BrdU-positive cells” value in the data set with hASC [3] is listed as 27.5%. Besides, the “phosphorylation of Akt” value in the data set on Akt was “induced rapid phosphorylation”. In addition, in the data set on ERK1/2, the “phosphorylation of ERK1/2” value was “induced rapid phosphorylation”. Also, the “phosphorylation of JNK, IκBα or p38” value with JNK, IκBα or p38 was “no clear effect”. The “effect on ability of hASC to suppress PBMC proliferation” value in the data set with PBMC proliferation is on record as “did not alter”. The “induction of IDO” value in [4] was “did not induce”. Moreover, in data set [5], the “effect on hASC expression of HLA-I, HLA-II, CD80 and CD86” value was “do not affect”.

In the case of “BAFF: recombinant protein from R&D Systems; TNF ligand binding BCMA, TACI and BAFF-R”, in the data set with hASC [2], the “hASC growth in MTS assay, considering basal growth 100%” value stood at 140% and the “promotion of cell growth when ERK was inhibited” value was “did not promote cell growth”. Besides, the “percentage of BrdU-positive cells” value in the data set on hASC [3] was determined as 29.4%. Also, in the data set on Akt, the “phosphorylation of Akt” value is given as “induced rapid phosphorylation”. Besides, the “phosphorylation of ERK1/2” value with ERK1/2 was “induced rapid phosphorylation”. The “phosphorylation of JNK, IκBα or p38” value with JNK, IκBα or p38 was “no clear effect”. Further, the “effect on ability of hASC to suppress PBMC proliferation” value with PBMC proliferation was “did not alter”. The “induction of IDO” value in data set [4] is listed as “did not induce”. The “effect on hASC expression of HLA-I, HLA-II, CD80 and CD86” value in [5] is on record as “do not affect”.

Regarding “CXCL12: cytokine from Peprotech; enhances APRIL secretion”, the “APRIL secretion by hASC” value in [6] (setting [7]) is “preferentially enhances APRIL”.

Take poly I:C [reference compound]: in [6] (hASC activated with LPS or poly I:C), the “induction of APRIL or BAFF secretion by TLR ligand” value was “Neither ligand induced”.

B1: IFN-γ: cytokine from Peprotech; inducer of BAFF (protein, UniProt P01579 24-161, looked up)
Interferon gamma: QDPYVKEAENLKKYFNAGHSDVADNGTLFLGILKNWKEESDRKIMQSQIVSFYFKLFKNFKDDQSIQKSVETIKEDMNVKFFNSNKKKRDDFEKLTNYSVTDLNVQRKAIHELIQVMAELSPAAKTGKRKRSQMLFRG
Consider B1, for which the “BAFF secretion by hASC” value in data set [6] (setting [7]) is on record as “promotes BAFF secretion”.
